Source: PubChem BioAssay (NCI)
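Method: 48-hour compound exposure of cells in 96-well plates, five concentrations, linear interpolation of endpoints. The concentration for 50% growth inhibition is given as GI50. The concentration for full growth arrest is given as TGI.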

How the values were obtained:
Assay in all cases: NCI tumour cell line growth inhibition, 48 h
U251 CNS = tested on: U251 CNS
SF-268 CNS = tested on: SF-268 CNS
SW-620 colon = tested on: SW-620 colon
COLO 205 colon = tested on: COLO 205 colon
MOLT-4 leukemia = tested on: MOLT-4 leukemia
LOX IMVI melanoma = tested on: LOX IMVI melanoma
CAKI-1 renal = tested on: CAKI-1 renal
SN12C renal = tested on: SN12C renal
786-0 renal = tested on: 786-0 renal
SR leukemia = tested on: SR leukemia

| Compound | GI50 (U251 CNS) [µM] | TGI (U251 CNS) [µM] | GI50 (SF-268 CNS) [µM] | TGI (SF-268 CNS) [µM] | GI50 (SW-620 colon) [µM] | TGI (SW-620 colon) [µM] | GI50 (COLO 205 colon) [µM] | TGI (COLO 205 colon) [µM] | GI50 (MOLT-4 leukemia) [µM] | TGI (MOLT-4 leukemia) [µM] | GI50 (LOX IMVI melanoma) [µM] | TGI (LOX IMVI melanoma) [µM] | GI50 (CAKI-1 renal) [µM] | TGI (CAKI-1 renal) [µM] | GI50 (SN12C renal) [µM] | TGI (SN12C renal) [µM] | GI50 (786-0 renal) [µM] | TGI (786-0 renal) [µM] | GI50 (SR leukemia) [µM] | TGI (SR leukemia) [µM] |
| --- | --- | --- | --- | --- | --- | --- | --- | --- | --- | --- | --- | --- | --- | --- | --- | --- | --- | --- | --- | --- |
| COC(=O)[C@H](CC(C)C)NC(=O)NC(=O)NC(=O)CI | 15.8 | 29.3 | 11.3 | 29.1 | 1.83 | 3.53 | 1.79 | 3.47 | 2.1 | 5.12 | 1.64 | 3.24 | 1.06 | 2.23 | 3.61 | 16.2 | 3.02 | 11.5 | 1.25 | 4.37 |
| C=C1C(=O)O[C@@H]2C[C@@H]1CC[C@@]1(C)O[C@@H]1CC[C@@]1(C)O[C@@H]1CC[C@@]2(C)O | 16.1 | 36.1 | 40.5 | > 100 | 14.1 | 42.2 | 14.4 | 31 | 10.1 | 32.3 | 15.7 | 31 | 22.7 | 72.8 | 16.1 | 40.1 | 19.2 | 42.2 | 3.12 | 16.3 |
| C/C(=C\CCc1ccoc1)CC/C=C(\C)CCCN1CCC(CO)CC1 | 2.41 | 9.24 | 5.65 | 19.4 | 2.06 | 5.08 | 1.94 | 3.98 | 2.32 | 5.67 | 1.81 | 3.47 | 4.26 | 16.5 | 4.54 | 18.9 | 2.35 | 5.37 | 1.66 | 4.29 |
| C#COc1cccc(Nc2ncnc3ncc(NC(=O)CCl)cc23)c1 | > 13.3 | > 34.5 | > 22.3 | > 62.5 | – | > 62.5 | > 26.8 | > 62.5 | – | > 62.5 | – | > 28 | > 15.2 | > 62.5 | – | > 62.5 | 2.71 | > 62.5 | – | > 62.5 |
| N#Cc1c(NC(=O)CN2CCOCC2)sc2c1CCCC2 | > 25 | > 25 | > 25 | > 25 | > 25 | > 25 | > 25 | > 25 | > 25 | > 25 | > 25 | > 25 | > 25 | > 25 | > 25 | > 25 | > 25 | > 25 | > 25 | > 25 |
